The results in this text go back to patent EP0877740B1, “THIOL DERIVATIVES WITH METALLOPEPTIDASE INHIBITORY ACTIVITY” (ZAMBON GROUP S.p.A., priority 1995, dated 1997).

This assay addresses T1, ACE (Rattus norvegicus, UniProt P47820).
T1 construct: After the removal of the lungs from SHR, the lung tissue was homogenized; from tissue; host or cells: lung homogenate of spontaneously hypertensive rats (SHR)
T1 sequence (P47820 36-1313): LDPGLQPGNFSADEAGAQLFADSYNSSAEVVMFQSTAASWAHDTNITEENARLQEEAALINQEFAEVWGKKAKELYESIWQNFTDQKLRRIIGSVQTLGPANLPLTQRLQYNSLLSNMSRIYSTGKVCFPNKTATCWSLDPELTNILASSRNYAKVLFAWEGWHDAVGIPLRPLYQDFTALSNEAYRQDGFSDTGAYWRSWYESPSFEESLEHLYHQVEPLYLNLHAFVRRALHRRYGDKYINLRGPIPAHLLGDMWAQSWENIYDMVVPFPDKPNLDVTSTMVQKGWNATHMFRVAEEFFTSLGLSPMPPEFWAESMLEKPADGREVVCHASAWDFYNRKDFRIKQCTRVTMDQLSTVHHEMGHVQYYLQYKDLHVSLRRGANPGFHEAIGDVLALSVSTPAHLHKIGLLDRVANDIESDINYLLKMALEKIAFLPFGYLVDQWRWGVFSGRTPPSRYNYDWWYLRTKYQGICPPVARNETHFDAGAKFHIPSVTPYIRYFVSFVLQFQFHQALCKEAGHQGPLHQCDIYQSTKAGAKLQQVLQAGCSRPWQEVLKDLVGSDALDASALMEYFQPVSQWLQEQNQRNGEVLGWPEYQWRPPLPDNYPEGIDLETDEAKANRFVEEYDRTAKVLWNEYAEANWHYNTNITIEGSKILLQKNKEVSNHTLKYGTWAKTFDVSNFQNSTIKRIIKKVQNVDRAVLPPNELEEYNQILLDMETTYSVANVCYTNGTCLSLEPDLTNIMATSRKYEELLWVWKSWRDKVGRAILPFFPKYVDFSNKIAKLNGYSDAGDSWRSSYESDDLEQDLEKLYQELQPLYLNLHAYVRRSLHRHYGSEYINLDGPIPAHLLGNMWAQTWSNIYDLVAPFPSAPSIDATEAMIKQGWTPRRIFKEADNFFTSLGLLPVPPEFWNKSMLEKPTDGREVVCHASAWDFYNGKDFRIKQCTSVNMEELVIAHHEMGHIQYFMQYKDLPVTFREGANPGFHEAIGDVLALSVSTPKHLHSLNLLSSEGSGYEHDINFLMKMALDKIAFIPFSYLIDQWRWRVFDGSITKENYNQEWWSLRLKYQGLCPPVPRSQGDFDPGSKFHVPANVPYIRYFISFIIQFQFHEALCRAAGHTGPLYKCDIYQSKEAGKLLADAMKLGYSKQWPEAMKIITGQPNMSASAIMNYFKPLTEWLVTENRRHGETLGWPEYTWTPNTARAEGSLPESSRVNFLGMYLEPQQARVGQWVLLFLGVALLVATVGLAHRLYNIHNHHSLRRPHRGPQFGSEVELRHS
The assay can be described thus: Ex vivo ACE-inhibitory activity in lung homogenates of treated SHR (radiometric, [3H]Hyp-Gly-Gly). Details: species or system spontaneously hypertensive rats (SHR). To be noted: SHR lungs; for inhibition at 30 µmol/kg: oral 30 µmoles/kg. As to the method:
The ex-vivo ACE/NEP-inhibitory activity, in particular, was determined by evaluating the enzymatic activity in tissue homogenates (lung and kidney for ACE and NEP activity, respectively) from spontaneously hypertensive rats (SHR) treated with the tested compounds by intravenous or oral route.
The ex vivo ACE-inhibitory activity was evaluated by using a radiometric assay method, as reported in the literature by J. W. Ryan et al. in Biochem. J. (1977), 167, 501-504.
The inhibitory activity of the compounds of formula I was evaluated in lungs of spontaneously hypertensive rats (SHR), 5 minutes after i.v. injection (0.6 and 21 µmoles/kg) and 30 minutes, 60 minutes and 4 hours after oral administration (30 µmoles/kg) of the tested compounds.
After the removal of the lungs from SHR, the lung tissue was homogenized and incubated for 2 hours at 37°C in the presence of [^3H]Hyp-Gly-Gly, as a substrate.
The reaction was stopped by adding hydrochloric acid.
The released radiolabelled hyppuric acid was extracted with ethyl acetate and counted by liquid scintillation spectrometry, according to conventional methods.
The ACE-inhibitory activity of the tested compounds was expressed as percentage of ACE-inhibition in SHR lungs.

Where two headings read alike, the source gives them in different places.

In general, inhibition refers to the drop in the measured response relative to a control, in per cent.

For `O=C(N[C@@H](Cc1ccc(-c2nccs2)cc1)C(=O)O)[C@@H](CS)Cc1ccccc1` [Compound 16, N-[(2S)-3-mercapto-2-phenylmethylpropionyl]-4-(2-thiazolyl)-L-phenylalanine], the inhibition at 30 µmol/kg is, setting by setting: (30 minutes after administration, read-out: ACE-inhibition (lungs) 30 minutes) 60%; (60 minutes after administration, read-out: ACE-inhibition (lungs) 60 minutes) 36%; (4 hours after administration, read-out: ACE-inhibition (lungs) 4 hours) 45%. The inhibition at 0.6 µmol/kg (iv, i.v. 0.6 µmoles/kg, 5 minutes after injection) amounted to 15%. This compound showed an inhibition at 21 µmol/kg (iv, i.v. 21 µmoles/kg, 5 minutes after injection) of 72%.
